# Source: patent US8431565B2 (priority 2007, dated 2013)
# Molecular target: T1, rat CB2 receptor (rCB2) (Rattus norvegicus, UniProt Q9QZN9)
# T1 sequence (Q9QZN9 1-360): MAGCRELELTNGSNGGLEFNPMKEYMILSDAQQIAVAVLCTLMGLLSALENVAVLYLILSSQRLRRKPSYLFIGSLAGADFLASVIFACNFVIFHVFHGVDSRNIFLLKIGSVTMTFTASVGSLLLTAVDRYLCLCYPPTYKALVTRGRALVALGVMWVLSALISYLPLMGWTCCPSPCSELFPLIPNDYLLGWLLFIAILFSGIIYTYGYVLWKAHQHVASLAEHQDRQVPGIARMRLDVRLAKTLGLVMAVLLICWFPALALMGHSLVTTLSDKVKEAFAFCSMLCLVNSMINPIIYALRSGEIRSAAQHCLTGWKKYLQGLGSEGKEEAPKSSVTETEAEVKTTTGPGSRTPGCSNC
row,SMILES,EC50 [nM]
1,"CCc1nc(C(=O)N[C@H](C(=O)NC)C(C)(C)C)c2n1CCN(C)C2 [Compound 310, (S)-N-(3,3-dimethyl-1-(methylamino)-1-oxobutan-2-yl)-3-ethyl-7-methyl-5,6,7,8-tetrahydroimidazo[1,5-a]pyrazine-1-carboxamide]",10 to 100
2,"CC(C)CN1CCn2c(-c3ccccc3)nc(C(=O)NC3C4(C)CCC(C4)C3(C)C)c2C1 (stereo not shown) [Compound 142, 7-isobutyl-3-phenyl-N-(1,3,3-trimethylbicyclo[2.2.1]heptan-2-yl)-5,6,7,8-tetrahydroimidazo[1,5-a]pyrazine-1-carboxamide]",10 to 100
3,"CC(C)CCNC(=O)c1nc(-c2ccc(Cl)cc2)n2c1CN(CC(C)C)CC2 [Compound 157, 3-(4-chlorophenyl)-7-isobutyl-N-isopentyl-5,6,7,8-tetrahydroimidazo[1,5-a]pyrazine-1-carboxamide]",10 to 100
4,"CCN1CCn2c(-c3ccccc3)nc(C(=O)NC3C4(C)CCC(C4)C3(C)C)c2C1 (stereo not shown) [Compound 144, 7-ethyl-3-phenyl-N-(1,3,3-trimethylbicyclo[2.2.1]heptan-2-yl)-5,6,7,8-tetrahydroimidazo[1,5-a]pyrazine-1-carboxamide]",0.1 to 10
5,"CCCN1CCn2c(-c3ccccc3)nc(C(=O)Nc3ccccc3)c2C1 [Compound 154, N,3-diphenyl-7-propyl-5,6,7,8-tetrahydroimidazo[1,5-a]pyrazine-1-carboxamide]",10 to 100
6,"Cc1nnc([C@@H](NC(=O)c2nc(-c3ccccc3)n3c2CN(CC(C)C)CC3)C(C)(C)C)o1 [Compound 202, (S)-N-(2,2-dimethyl-1-(5-methyl-1,3,4-oxadiazol-2-yl)propyl)-7-isobutyl-3-phenyl-5,6,7,8-tetrahydroimidazo[1,5-a]pyrazine-1-carboxamide]",10 to 100
7,"CC(C)CN1CCn2c(-c3ccccc3)nc(C(=O)NN3CCCCC3)c2C1 [Compound 155, 7-isobutyl-3-phenyl-N-(piperidin-1-yl)-5,6,7,8-tetrahydroimidazo[1,5-a]pyrazine-1-carboxamide]",0.1 to 10
8,"CNC(=O)[C@@H](NC(=O)c1nc(-c2ccccc2)n2c1CN(S(=O)(=O)CC(C)C)CC2)C(C)(C)C [Compound 95, (S)-N-(3,3-dimethyl-1-(methylamino)-1-oxobutan-2-yl)-7-(isobutylsulfonyl)-3-phenyl-5,6,7,8-tetrahydroimidazo[1,5-a]pyrazine-1-carboxamide]",10 to 100
9,"CNC(=O)[C@@H](NC(=O)c1nc(/C=C/CN2CCCC2)n2c1CN(C)CC2)C(C)(C)C [Compound 288, (S,E)-N-(3,3-dimethyl-1-(methylamino)-1-oxobutan-2-yl)-7-methyl-3-(3-(pyrrolidin-1-yl)prop-1-enyl)-5,6,7,8-tetrahydroimidazo[1,5-a]pyrazine-1-carboxamide]",0.1 to 10
10,"CCN1CCn2c(-c3ccccc3)nc(C(=O)NCC3CCOCC3)c2C1 [Compound 168, 7-ethyl-3-phenyl-N-((tetrahydro-2H-pyran-4-yl)methyl)-5,6,7,8-tetrahydroimidazo[1,5-a]pyrazine-1-carboxamide]",10 to 100
11,"CNC(=O)[C@H](CC(C)C)NC(=O)c1nc(-c2ccc(Cl)cc2F)n2c1CN(C)CC2 [Compound 276, (S)-3-(4-chloro-2-fluorophenyl)-7-methyl-N-(4-methyl-1-(methylamino)-1-oxopentan-2-yl)-5,6,7,8-tetrahydroimidazo[1,5-a]pyrazine-1-carboxamide]",10 to 100
12,"CNC(=O)[C@@H](NC(=O)c1nc(-c2ccccc2)n2c1CN(S(=O)(=O)C(C)C)CC2)C(C)(C)C [Compound 94, (S)-N-(3,3-dimethyl-1-(methylamino)-1-oxobutan-2-yl)-7-(isopropylsulfonyl)-3-phenyl-5,6,7,8-tetrahydrimidazo[1,5-a]pyrazine-1-carboxamide]",10 to 100
13,"CNC(=O)[C@@H](NC(=O)c1nc(-c2cc(C(F)(F)F)ccc2F)n2c1CN(C)CC2)C(C)(C)C [Compound 245, (S)-N-(3,3-dimethyl-1-(methylamino)-1-oxobutan-2-yl)-3-(2-fluoro-5-(trifluoromethyl)phenyl)-7-methyl-5,6,7,8-tetrahydroimidazo[1,5-a]pyrazine-1-carboxamide]",10 to 100
14,"CC(C)CN1CCn2c(-c3ccccc3)nc(C(=O)N[C@H](C)C3CCCCC3)c2C1 [Compound 163, (R)-N-(1-cyclohexylethyl)-7-isobutyl-3-phenyl-5,6,7,8-tetrahydroimidazo[1,5-a]pyrazine-1-carboxamide]",0.1 to 10
15,"Cc1ccc(-c2nc(C(=O)N[C@H](c3nc(C)no3)C(C)(C)C)c3n2CCCN(C(=O)OC(C)(C)C)C3)c(F)c1 [Compound 518, (S)-tert-butyl 1-(2,2-dimethyl-1-(3-methyl-1,2,4-oxadiazol-5-yl)propylcarbamoyl)-3-(2-fluoro-4-methylphenyl)-6,7-dihydro-5H-imidazo[1,5-a][1,4]diazepine-8(9H)-carboxylate]",10 to 100
16,"CNC(=O)[C@@H](NC(=O)c1nc(-c2ccccc2)n2c1CN(C(C)C)CC2)C(C)(C)C [Compound 85, (S)-N-(3,3-dimethyl-1-(methylamino)-1-oxobutan-2-yl)-7-isopropyl-3-phenyl-5,6,7,8-tetrahydroimidazo[1,5-a]pyrazine-1-carboxamide]",10 to 100
17,"CNC(=O)[C@@H](NC(=O)c1nc(-c2ccsc2)n2c1CN(S(=O)(=O)c1ccc(F)cc1)CC2)C(C)(C)C [Compound 109, (S)-N-(3,3-dimethyl-1-(methylamino)-1-oxobutan-2-yl)-7-(4-fluorophenylsulfonyl)-3-(thiophen-3-yl)-5,6,7,8-tetrahydroimidazo[1,5-a]pyrazine-1-carboxamide]",10 to 100
18,"CNC(=O)[C@@H](NC(=O)c1nc(-c2ccccc2)n2c1CN(Cc1ccco1)CC2)C(C)(C)C [Compound 64, (S)-N-(3,3-dimethyl-1-(methylamino)-1-oxobutan-2-yl)-7-(furan-2-ylmethyl)-3-phenyl-5,6,7,8-tetrahydroimidazo[1,5-a]pyrazine-1-carboxamide]",10 to 100
19,"CNC(=O)[C@@H](NC(=O)c1nc(-c2ccccc2)n2c1CN(c1cccc(Cl)n1)CC2)C(C)(C)C [Compound 299, (S)-7-(6-chloropyridin-2-yl)-N-(3,3-dimethyl-1-(methylamino)-1-oxobutan-2-yl)-3-phenyl-5,6,7,8-tetrahydroimidazo[1,5-a]pyrazine-1-carboxamide]",10 to 100
20,"CNC(=O)[C@H](CC(C)C)NC(=O)c1nc(-c2ccc(Cl)c(F)c2)n2c1CN(C)CC2 [Compound 277, (S)-3-(4-chloro-3-fluorophenyl)-7-methyl-N-(4-methyl-1-(methylamino)-1-oxopentan-2-yl)-5,6,7,8-tetrahydroimidazo[1,5-a]pyrazine-1-carboxamide]",10 to 100
21,"COC(=O)N1CCn2c(-c3ccc(Cl)cc3)nc(C(=O)N[C@H](CO)C(C)(C)C)c2C1 [Compound 184, (S)-methyl 3-(4-chlorophenyl)-1-(1-hydroxy-3,3-dimethylbutan-2-ylcarbamoyl)-5,6-dihydroimidazo[1,5-a]pyrazine-7(8H)-carboxylate]",10 to 100
22,"CNC(=O)[C@@H](NC(=O)c1nc(-c2ccc(C(F)(F)F)cc2)n2c1CNCC2)C(C)(C)C [Compound 5, (S)-N-(3,3-dimethyl-1-(methylamino)-1-oxobutan-2-yl)-3-(4-(trifluoromethyl)phenyl)-5,6,7,8-tetrahydroimidazo[1,5-a]pyrazin-1-carboxamide]",10 to 100
